In patent US11413301B2, “Composition comprising sea cucumber extract as effective ingredient for preventing and treating Bruch's membrane dysfunction-related disease” (priority 2016, dated 2022):

How the values were obtained:
[1] = test system: lipids of Bruch's membrane; assay: Lipid removal from Bruch's membrane by Frondoside A (lipid extracted from membrane, TLC); set-up: species or system human; details: Frondoside A 167 μg/mL, membrane after hydraulic conductivity measurement
Method: To confirm the lipid removal effect of Frondoside A, after the measurement of hydraulic conductivity in Example 10, the Bruch's membrane was cut into a piece having a diameter of 6 mm, and then a lipid was extracted using a CM solution (chloroform:methanol=2:1), followed by evaporating the solvent. After 50 μL of a CM solution was added thereto again, 40 μL of the resulting solution was dropped on a silica gel TLC plate, and the type and amount of the lipid were analyzed.

[2] = test system: MMP enzyme secreted from a human Bruch's membrane; assay: MMP secretion from Bruch's membrane incubated with Frondoside A (zymography); details: Frondoside A 167 μg/mL, 30 hours
Method: Zymography was performed using the solution incubated for 30 hours in the measurement of hydraulic conductivity in Example 10. Specifically, a Bruch's membrane was incubated with a Tris buffer solution as a control or a Frondoside A solution (167 μg/mL) for 30 hours, 50 μL of the resulting solution was mixed with 50 μL of the SDS sample buffer, and then 30 μL of the resulting mixture was loaded on a gel to measure an MMP enzyme secreted from a human Bruch's membrane.

[3] = test system: human Bruch's membrane; assay: Hydraulic conductivity of isolated Bruch's membrane (open-type Ussing chamber, fluid transport under hydrostatic pressure)
Method: First, to confirm the waste transport ability, the hydraulic conductivity of the Bruch's membrane isolated from a donated eye was measured. The isolated Bruch's membrane was mounted in an open-type Ussing chamber to measure a quantitative change in fluid under hydrostatic pressure and calculate a change in hydraulic conductivity (FIGS. 5B and 5C). […] The data of FIG. 5D is expressed using a semi-log plot with the logarithmic scale on the y-axis to convert exponential decay to a linear plot. To maintain the function of photoreceptor cells, the Bruch's membrane requires a minimal hydraulic conductivity function, which represents a failure line. […] All of the hydraulic conductivities measured for the peripheral regions of the 11 macular degeneration patients may be observed to be below the mean regression line (refer to the black circle and the red line in FIG. 5E), showing that, in the peripheral region, rather than the macular region, the decrease in the material transport function progresses to a serious condition. […]
In addition, to investigate the improvement of the transport function of the Bruch's membrane according to the dose of the sea cucumber extract, Bruch's membranes isolated from the eyes of four donors ranging from 69 to 84 years of age were measured, a dose response curve for the improvement of hydraulic conductivity was expressed. […]

COC1C(O)C(CO)OC(OC2C(O)COC(OC3C(C)OC(OC4C(O[C@H]5CC[C@]6(C)C7CCC89C(=O)O[C@@](C)(CCCC(C)C)[C@H]8[C@@H](OC(C)=O)C[C@@]9(C)C7=CC[C@H]6C5(C)C)OCC(OS(=O)(=O)[O-])C4O)C(OC4OCC(O)C(O)C4O)C3O)C2O)C1O.[Na+] (stereo partly shown) [Frondoside A]
removal of Ch from the Bruch's membrane [1]: did not have an effect | removal of ChE from the Bruch's membrane [1]: did not have an effect | removal of TG from the Bruch's membrane [1]: did not have an effect | removal of phosphatidylcholine from the Bruch's membrane [1]: had an effect of removing phosphatidylcholine | secretion of Pro-MMP9 bound to the membrane [2]: an enormous amount of Pro-MMP9 bound to the membrane was secreted | effect on the improvement of hydraulic conductivity relative to the control ([3]; Frondoside A 167 μg/mL, control Tris buffer): ≥ 1.6 fold | hydraulic conductivity Fold-change Mean ± SD (n) ([3]; Frondoside A 167 μg/ml): 1.65 ± 0.2 (3) Fold-change
